In patent US8575156B2, “Cyclic inhibitors of 11β-hydroxysteroid dehydrogenase 1” (Vitae Pharmaceuticals, Inc., priority 2007, dated 2013):

Target: 11β-HSD1 (Homo sapiens, UniProt P28845)
Assay: biochemical
Details: for IC50: IC50 Range, Biological Test Example 1, microsomes from CHO cells overexpressing human 11β-HSD1; for inhibition at 0.1 µM: read-out: Average % inhibition at 100 nM, Biological Test Example 1, 100 nM

11β-HSD1, sequence (P28845 whole entry): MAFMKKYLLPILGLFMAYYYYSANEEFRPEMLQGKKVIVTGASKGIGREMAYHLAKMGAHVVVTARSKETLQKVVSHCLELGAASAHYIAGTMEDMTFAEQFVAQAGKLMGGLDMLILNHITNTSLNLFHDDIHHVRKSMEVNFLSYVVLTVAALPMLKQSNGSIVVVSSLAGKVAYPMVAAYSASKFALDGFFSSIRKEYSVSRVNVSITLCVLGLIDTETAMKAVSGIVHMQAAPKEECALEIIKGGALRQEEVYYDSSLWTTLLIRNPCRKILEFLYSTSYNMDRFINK

| Structure (SMILES) | IC50 | inhibition at 0.1 µM |
| --- | --- | --- |
| C[C@@H](c1ccc(-c2ccc(F)cc2)cc1)N1CC[C@](CCN2CC[C@H](F)C2)(c2ccc(F)cc2)OC1=O [EXAMPLE 465, (R)-3-((S)-1-(4′-fluorobiphenyl-4-yl)ethyl)-6-(4-fluorophenyl)-6-(2-((S)-3-fluoropyrrolidin-1-yl)ethyl)-1,3-oxazinan-2-one] | < 100 nM | 65% |
| C[C@@H](c1ccc(-c2ccc(F)cc2)cc1)N1CC[C@](CCN2CC[C@@H](F)C2)(c2ccc(F)cc2)OC1=O [EXAMPLE 466, (R)-3-((S)-1-(4′-fluorobiphenyl-4-yl)ethyl)-6-(4-fluorophenyl)-6-(2-((R)-3-fluoropyrrolidin-1-yl)ethyl)-1,3-oxazinan-2-one] | < 100 nM | 55.3% |
| C[C@@H](c1ccc(-c2ccc(F)cc2)cc1)N1CC[C@](CCN2CCNC(=O)C2)(c2ccc(F)cc2)OC1=O [EXAMPLE 467, (R)-3-((S)-1-(4′-fluorobiphenyl-4-yl)ethyl)-6-(4-fluorophenyl)-6-(2-(3-oxopiperazin-1-yl)ethyl)-1,3-oxazinan-2-one] | < 100 nM | 81.2% |
| C[C@@H](c1ccc(-c2ccccc2)cc1)N1CC[C@](CCO)(c2ccccc2)OC1=O [EXAMPLE 489, (S)-3-((S)-1-(biphenyl-4-yl)ethyl)-6-(2-hydroxyethyl)-6-phenyl-1,3-oxazinan-2-one] | < 100 nM | 98.3% |
| C[C@@H](c1ccc(-c2ccc(F)cc2)cc1)N1CC[C@](CCN2CCOCC2)(c2ccccc2)OC1=O [EXAMPLE 491, (R)-3-((S)-1-(4′-fluorobiphenyl-4-yl)ethyl)-6-(2-morpholinoethyl)-6-phenyl-1,3-oxazinan-2-one] | < 100 nM | 99.3% |
| C[C@@H](c1ccc(-c2ccc(F)cc2F)cc1)N1CC[C@](CCCOP(=O)(O)O)(c2ccccc2)OC1=O [EXAMPLE 492, 3-((R)-3-((S)-1-(2′,4′-difluorobiphenyl-4-yl)ethyl)-2-oxo-6-phenyl-1,3-oxazinan-6-yl)propyl dihydrogen phosphate] | < 100 nM | 87.7% |
| C[C@@H](c1ccc(-c2ccc(CO)cc2)cc1)N1CC[C@](CCCO)(c2ccccc2)OC1=O [EXAMPLE 494, (R)-3-((S)-1-(4′-(hydroxymethyl)biphenyl-4-yl)ethyl)-6-(3-hydroxypropyl)-6-phenyl-1,3-oxazinan-2-one] | < 100 nM | 100% |
| C[C@@H](c1ccc(Cl)c(F)c1)N1CC[C@](CCCO)(c2ccc(F)cc2)OC1=O [EXAMPLE 498, (R)-3-((S)-1-(4-chloro-3-fluorophenyl)ethyl)-6-(4-fluorophenyl)-6-(3-hydroxypropyl)-1,3-oxazinan-2-one] | < 100 nM | 97.8% |

Other lines, results leading:

| IC50 | inhibition at 0.1 µM | Structure (SMILES) |
| --- | --- | --- |
| < 100 nM | 94.8% | C[C@@H](c1ccc(-c2ccccc2)cc1)N1CC[C@](CCCO)(c2ccccc2)OC1=O [EXAMPLE 490, (R)-3-((S)-1-(biphenyl-4-yl)ethyl)-6-(3-hydroxypropyl)-6-phenyl-1,3-oxazinan-2-one] |
| < 100 nM | 89.1% | C[C@@H](c1ccc(-c2cccc(CN)c2)cc1)N1CC[C@](CCCO)(c2ccccc2)OC1=O [EXAMPLE 493, (R)-3-((S)-1-(3′-(aminomethyl)biphenyl-4-yl)ethyl)-6-(3-hydroxypropyl)-6-phenyl-1,3-oxazinan-2-one] |
| < 100 nM | 95.8% | C[C@@H](c1ccc(-c2ccc(CN)cc2)cc1)N1CC[C@](CCCO)(c2ccccc2)OC1=O [EXAMPLE 495, (R)-3-((S)-1-(4′-(aminomethyl)biphenyl-4-yl)ethyl)-6-(3-hydroxypropyl)-6-phenyl-1,3-oxazinan-2-one] |
| < 100 nM | 98.2% | C[C@@H](c1ccc(Br)cc1)N1CC[C@](CC2(O)CC2)(c2ccc(F)cc2)OC1=O [EXAMPLE 500, (S)-3-((S)-1-(4-bromophenyl)ethyl)-6-(4-fluorophenyl)-6-((1-hydroxycyclopropyl)methyl)-1,3-oxazinan-2-one] |
